Experimental data from US10933032B2, “Methods for the treatment of cancer using coenzyme Q10 combination therapies” (Berg LLC, priority 2013, dated 2021).
“Also recorded” adds a separate entry of the source.

Experiments:
[1] = background statement; cited from earlier work
[2] = test system: MIAPaCa-2, SKOV-3, PC-3, HT-29, MCF7, MDA-MB231, SKBR-3, A549, Hep3B cancer cells; experiment: In vitro CoQ10 monotherapy of various cancer cell types; type: cell-based; details: 100 μM CoQ10 for 48-72 hours; FIG. 16
Protocol: Cells were treated with 100 μM CoQ10 for 48-72 hours.

[3] = test system: MDA-MB213 breast cancer cells; experiment: Reactive oxygen species (ROS) production; type: cell-based; details: 100 μM CoQ10 for 24 hours, FIG. 17
Protocol: (§1) Cells were treated with 100 μM CoQ10 for 24 hours.
(§2) Mitochondria represent a significant source of ROS which are known to participate in activation of cell death pathways.

[4] = test system: non-tumorigenic control cells (MCF12A); experiment: Reactive oxygen species (ROS) production; type: cell-based; details: 100 μM CoQ10 for 24 hours, FIG. 17
Protocol: as §1, §2

[5] = test system: MDA-MB213 breast cancer cells; experiment: Basal oxygen consumption rate (OCR) and extracellular acidification rate (ECAR); type: cell-based; details: 100 μM CoQ10 for 24 hours, FIG. 17
Protocol: as §1, §2

[6] = in vivo; details: rat, rats, given three times per week for 4 weeks
[7] = test system: tumors; details: Example 8, written in present tense
Protocol: In an in vivo tumor xenograft model, mice are implanted with tumors. For example, MIAPaCa-2 pancreatic cancer cells suspended in [sequence] are injected into NSG mice. Alternatively, other tumor cell lines, e.g., triple negative breast cancer, hepatic cancer, prostate cancer, melanoma, sarcoma, carcinoma cell lines, are used in the xenograft mouse model.
Various sequential regimens and combinations of CoQ10 and chemotherapeutic agents are tested for the ability to reduce tumor burden and/or reduce tumor metastasis. […] For example, in some animals, 2 or more cycles of CoQ10 are administered in Treatment 1 prior to one or more cycles of the chemotherapeutic agent in Treatment 2. In some animals, one cycle of CoQ10 is administered in Treatment 1 prior to administration of multiple cycles of chemotherapy in Treatment 2.
Tumor volumes are monitored using routine methods, e.g., calipers, imaging analysis. At the end of the study, tumors are excised and analyzed for using routine methods, e.g., for size (e.g., weight and volume), histological characteristics, grade, and vascularization.

[8] = test system: MIAPaCa-2 pancreatic cancer cells; type: cell-based; details: CoQ10 (100 μM) pre-treatment (6 hours) and co-treatment regimen, FIGS. 11-14
[9] = test system: MIAPaCa-2 human pancreatic tumor cells; experiment: Xenogeneic mouse human pancreatic cancer model, survival; type: in vivo, NOD scid gamma (NSG) mice; details: for Survival (prolongation of life) compared to untreated control: Example 1, Regimen 1, single agent: IV 4% Coenzyme Q10 50 mg/kg/day, or IV gemcitabine 150 mg/kg/week for 3 weeks with one week rest; for Survival, combination of CoQ10 and gemcitabine vs other groups: Example 1, Regimen 1: IV CoQ10 50 mg/kg/day + IV gemcitabine 150 mg/kg weekly for 3 weeks with one week rest
[10] = Prior experiments, signs of toxicity; type: in vivo; details: three times per week at up to 50 mg/kg
Protocol: Sterile CoQ10 formula and the suitable sterile control is administered intravenously. CoQ10 doses are administered based on ongoing results. […] The effect of CoQ10 is compared with other chemotherapy regimens specific for each cancer line. Another arm of the study evaluates synergistic effects between CoQ10 and other chemotherapeutic agents.

## COC1=C(OC)C(=O)C(C/C=C(\C)CC/C=C(\C)CC/C=C(\C)CC/C=C(\C)CC/C=C(\C)CC/C=C(\C)CC/C=C(\C)CC/C=C(\C)CC/C=C(\C)CCC=C(C)C)=C(C)C1=O [CoQ10, Coenzyme Q10]
[1]
  Lipophilicity: very lipophilic
  Solubility in water: insoluble in water
[2]
  Cell death in cancer cells: increased cell death
[3]
  ROS production: increased ROS production
[4]
  ROS production: increased ROS production
[5]
  Ratio of OCR to ECAR: higher ratio of OCR to ECAR
[6]
  MTD at 4 weeks: 250 mg/kg
[7]
  Efficacy (tumor burden), one or more cycles of CoQ10 prior to a chemotherapeutic agent: more effective than co-administration of CoQ10 with a chemotherapeutic agent or a chemotherapeutic agent alone
[8]
  Cytotoxic potential of gemcitabine: augmented the cytotoxic potential of gemcitabine
[9]; 50 mg/kg CoQ10, FIG. 30
  Survival rate (survival probability) at 300 days: lowest survival rate
[9]; 100 mg/kg CoQ10, FIG. 30
  Survival rate (survival probability) at 300 days: between the other two treatment groups
[9]; 200 mg/kg CoQ10, FIG. 30
  Survival rate (survival probability) at 300 days: highest survival rate
[9]; CoQ10 200 mg/kg, vs gemcitabine+CoQ10 from the start, gemcitabine or CoQ10 alone, FIG. 31
  Survival, pretreatment with CoQ10 for sixty days followed by gemcitabine+CoQ10: improved survival in comparison to treatment with gemcitabine+CoQ10 from the start of the treatment regimen; also recorded: improved survival outcomes
[9]; CoQ10 60 days prior to start of gemcitabine and continuing with CoQ10, FIG. 31
  Survival rate (survival probability) at 200 days: highest survival rate
[9]; CoQ10 alone or CoQ10 in combination with doxorubicin, vs gemcitabine or doxorubicin
  Responses associated with favorable therapeutic endpoints, most notably an increase in survival: more effective than gemcitabine or doxorubicin
[9]; CoQ10 from the start (alone), FIG. 31
  Survival rate (survival probability) at 200 days: next highest survival rate
[9]; FIG. 1
  Survival (prolongation of life) compared to untreated control: prolongation of life as compared to untreated control
  Survival, combination of CoQ10 and gemcitabine vs other groups: prolonged survival and long-term remission that was statistically significant compared to other groups
[9]; FIG. 1, listed as Coenzyme Q10
  Survival (prolongation of life) compared to untreated control: increases survival time of the mice
  Survival, combination of CoQ10 and gemcitabine vs other groups: more effective at increasing survival time in mice bearing pancreatic tumors than treatment with either agent alone
[9]; Example 1, Regimen 1: IV CoQ10 50 mg/kg/day vs gemcitabine 150 mg/kg/week, FIG. 1
  Impact on survival, CoQ10 alone vs gemcitabine alone: significantly greater impact on survival than gemcitabine alone
[9]; Example 2, Regimen 2: 4% CoQ10 intravenous formulation 50 mg/kg intraperitoneally twice daily, 3 weeks with one week rest, vs untreated or gemcitabine alone, FIG. 4
  Survival, CoQ10 alone: increase in survival
[9]; Example 2, Regimen 2: CoQ10 50 mg/kg IP twice daily + gemcitabine 150 mg/kg once per week, vs untreated or gemcitabine alone, FIG. 4
  Survival, CoQ10 in combination with gemcitabine: increase in survival
[9]; Example 4, once daily dosing with intravenous CoQ10, FIG. 7
  Survival (viability, mortality), CoQ10 in combination with doxorubicin vs doxorubicin alone: decreased mortality rates
[9]; Example 5, Regimen 3: IP 4% CoQ10 intravenous formulation 50 or 75 mg/kg/dose, 3 times daily, FIG. 8
  Survival, Coenzyme Q10 alone vs control animals: significantly increased survival as compared to control animals
[9]; Example 5, Regimen 3: IP CoQ10 50 or 75 mg/kg/dose 3 times daily + IV gemcitabine 150 mg/kg weekly for 3 weeks with one week rest, FIG. 8
  Survival, combination of Coenzyme Q10 and gemcitabine vs same dose of Coenzyme Q10 alone: increased survival as compared to mice treated with the same dose of Coenzyme Q10 alone
[9]; Example 11, IP CoQ10 75 mg/kg/dose 3 times daily, gemcitabine 150 mg/kg weekly initiated 1-3 weeks later, early time points, FIG. 15
  Survival, pretreatment with CoQ10 followed by gemcitabine vs co-treatment regimen: improved survival
[9]; Example 11, latest time point, FIG. 15
  Survival, CoQ10 + gemcitabine vs untreated control: increases the survival in a statistically significant manner as compared to untreated control
[9]; Example 17, Regimen 3: 50 mg/kg or 75 mg/kg, FIG. 29
  Survival, dose dependence: dose dependent increase in survival
[9]; Example 17, Regimen 3, FIG. 29
  Effect on survival when combined with gemcitabine: additive effect to gemcitabine
[9]; Example 17, best outcomes at 200 mg/kg, FIG. 30
  Survival rates, continuous infusion of CoQ10 vs three doses (50 mg/kg or 75 mg/kg): significantly improved survival rates compared to three doses
[9]; FIG. 30
  Survival, continuous infusion of CoQ10 at 200 mg/kg vs 50 mg/kg: significantly improved survival in comparison to 50 mg/kg CoQ10
[9]; gemcitabine and CoQ10 from the start, FIG. 31
  Survival rate (survival probability) at 200 days: next highest survival rate
[10]
  Signs of toxicity: no signs of toxicity
